Experimental data taken from PubChem BioAssay AID588663 (The Scripps Research Institute Molecular Screening Center, 2011).
Activity calls are given as the source filed them.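 Rule for the calls: active = phosphorylated p38 level shifted at least 30% either way versus solvent-only control; inactive = shift under 30% either way.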

Each compound was assayed on SW620 cells, phospho-p38 western blot, 24 h (assay: phospho-p38 level change, either direction, late-stage follow-up, counter-screen for KLF5 inhibitor project, SW620 cells, chemiluminescent western blot, powder samples (AID 588663)). Conditions: at 10 µM; stronger effect = higher value.
In the case of CN(C(=O)CNC(=O)/C=C/c1cccc(Cl)c1)C1CCS(=O)(=O)CC1, the inhibition is reported as 6.58% (inactive).
With CN(C(=O)CNC(=O)/C=C/c1cccc(Cl)c1)C1CCS(=O)(=O)C1 (stereo not drawn) the inhibition was 15.9% (inactive).
With CN(C(=O)COC(=O)/C=C/c1cccc([N+](=O)[O-])c1)C1CCS(=O)(=O)C1 (stereo not drawn) the inhibition was 9.32% (inactive).
